What was measured:
[1] = tested on: B16 melanoma; experiment: Tumor treatment assay, palpable B16 model; format: in vivo, C57BL/6 mice; details: palpable B16, single subcutaneous treatment in contralateral limb
Description: IDC-1005 was incubated with irradiated GVAX cells at 4 deg C. for 0.5-2, hours prior to inoculation. GVAX formulated with IDC-1005 is labeled as TEGVAX.
Tumor treatment assay: C57BL/6 mice were injected with 1-5×10^4 B16 in the footpads. Once palpable tumor developed (5-10 days), 100 μl of 10^6 B16 GVAX formulated with or without IDC-1005 were injected subcutaneously into the contralateral limb. The control groups were injected with vehicle. For all these experiments, 10 mice were used per group. […] For all the vaccines, GM-CSF was titered to ensure that GM-CSF expression level ranged from 50-500 ng/10^6 Cells/24 hours. Tumor was measured daily.

[2] = tested on: TLR4; details: cited from earlier work
[3] = human, in vivo; cited from earlier work

Compound	tumor growth rate / in vivo anti-tumor response [1]	TH1 type cytokines on activation of dendritic cells ([2]; murine and human dendritic cells, in vivo and in vitro, versus MPL)	TLR4 agonist strength ([2]; versus monophosphoryl lipid A)	safety / toxicity in patients [3]
CCCCCCCCCCCCCC(=O)O[C@H](CCCCCCCCCCC)CC(=O)O[C@@H]1[C@@H](NC(=O)C[C@H](CCCCCCCCCCC)OC(=O)CCCCCCCCCCCCC)[C@H](OC[C@H]2O[C@H](O)[C@H](NC(=O)C[C@H](O)CCCCCCCCCCC)[C@@H](OC(=O)C[C@H](O)CCCCCCCCCCC)[C@@H]2O)O[C@H](CO)[C@H]1OP(=O)(O)O [GLA, glucopyranosyl lipid A]	no in vivo anti-tumor effects	more potent in terms of increasing multiple TH1 type cytokines	stronger TLR4 agonist than the monophosphyl lipid A	
ipilimumab: anti-CTLA-4 antibody				grade 3-4 toxicity
CCOCc1nc2c(N)nc3ccccc3c2n1CC(C)(C)O [R848, resiquimod]				passed phase 1 trials for safety

From patent publication US9308253B2, “Cancer immunotherapy” (The Johns Hopkins University, priority 2011, dated 2016)
